In a compilation of properties of binary mixtures (doi:10.1021/jp308139r):

Assay: xn = mol fraction of the nth substance listed
Conditions: 101 kPa

C[NH+](C)C.O=S(=O)([N-]S(=O)(=O)C(F)(F)F)C(F)(F)F + CC1COC(=O)O1
Conditions | electrical conductivity [S/m]
264.45 K, x2 = 0.701 | 0.519
273.15 K, x2 = 0.701 | 0.687
283.15 K, x2 = 0.701 | 1
293.15 K, x2 = 0.701 | 1.34
298.15 K, x1 = 0.0002 | 0.011
298.15 K, x1 = 0.0005 | 0.022
298.15 K, x1 = 0.002 | 0.066
298.15 K, x1 = 0.0055 | 0.155
298.15 K, x2 = 0.5091 | 1.41
298.15 K, x2 = 0.5632 | 1.5
298.15 K, x2 = 0.6802 | 1.66
298.15 K, x2 = 0.843 | 1.43
303.15 K, x2 = 0.701 | 1.74
313.15 K, x2 = 0.701 | 2.16
323.15 K, x2 = 0.701 | 2.61
333.15 K, x2 = 0.701 | 3.09
343.15 K, x2 = 0.701 | 3.59
353.15 K, x2 = 0.701 | 4.1

C[NH+](C)C.O=S(=O)([N-]S(=O)(=O)C(F)(F)F)C(F)(F)F + CC#N
Conditions | electrical conductivity [S/m]
265.55 K, x2 = 0.86 | 4.31
273.15 K, x2 = 0.86 | 4.81
283.15 K, x2 = 0.86 | 5.49
293.15 K, x2 = 0.86 | 6.17
298.15 K, x1 = 0.0001 | 0.022
298.15 K, x1 = 0.0004 | 0.273
298.15 K, x1 = 0.0008 | 0.438
298.15 K, x1 = 0.0021 | 0.755
298.15 K, x1 = 0.0083 | 1.81
298.15 K, x2 = 0.5587 | 3.69
298.15 K, x2 = 0.6 | 4.08
298.15 K, x2 = 0.72 | 5.54
298.15 K, x2 = 0.78 | 6.28
298.15 K, x2 = 0.84 | 6.76
298.15 K, x2 = 0.8901 | 6.73
298.15 K, x2 = 0.938 | 5.86
298.15 K, x2 = 0.9677 | 4.21
313.15 K, x2 = 0.86 | 7.54
323.15 K, x2 = 0.86 | 8.22
333.15 K, x2 = 0.86 | 8.88
343.15 K, x2 = 0.86 | 9.57
353.15 K, x2 = 0.86 | 10.2

C[NH+](C)C.O=S(=O)([N-]S(=O)(=O)C(F)(F)F)C(F)(F)F + O=C1CCCO1
Conditions | electrical conductivity [S/m] | viscosity [mPa·s]
263.15 K, x2 = 0.74 | 0.948 | –
273.15 K, x2 = 0.74 | 1.19 | –
283.15 K, x2 = 0.74 | 1.61 | –
293.15 K, x2 = 0.74 | 2.01 | –
298.15 K, x1 = 0.0001 | 0.005 | –
298.15 K, x1 = 0.0003 | 0.027 | –
298.15 K, x1 = 0.0046 | 0.214 | –
298.15 K, x1 = 0.0188 | 0.613 | –
298.15 K, x2 = 0.5778 | 2.09 | –
298.15 K, x2 = 0.5976 | – | 6.89
298.15 K, x2 = 0.639 | 2.26 | –
298.15 K, x2 = 0.672 | – | 5.66
298.15 K, x2 = 0.6802 | 2.35 | –
298.15 K, x2 = 0.7426 | 2.44 | –
298.15 K, x2 = 0.7428 | – | 4.51
298.15 K, x2 = 0.8047 | 2.36 | –
298.15 K, x2 = 0.8088 | – | 3.5
298.15 K, x2 = 0.8692 | 2.06 | –
298.15 K, x2 = 0.8803 | – | 2.64
298.15 K, x2 = 0.9328 | 1.44 | –
303.15 K, x2 = 0.5976 | – | 5.87
303.15 K, x2 = 0.672 | – | 4.85
303.15 K, x2 = 0.74 | 2.49 | –
303.15 K, x2 = 0.7428 | – | 3.91
313.15 K, x2 = 0.5976 | – | 4.35
313.15 K, x2 = 0.74 | 2.97 | –
313.15 K, x2 = 0.7428 | – | 3.01
313.15 K, x2 = 0.8088 | – | 2.35
323.15 K, x2 = 0.5976 | – | 3.39
323.15 K, x2 = 0.672 | – | 2.84
323.15 K, x2 = 0.74 | 3.47 | –
323.15 K, x2 = 0.7428 | – | 2.29
323.15 K, x2 = 0.8088 | – | 1.91
323.15 K, x2 = 0.8803 | – | 1.49
333.15 K, x2 = 0.5976 | – | 2.74
333.15 K, x2 = 0.672 | – | 2.34
333.15 K, x2 = 0.8088 | – | 1.48
333.15 K, x2 = 0.8803 | – | 1.2
335.15 K, x2 = 0.74 | 4.11 | –
343.15 K, x2 = 0.5976 | – | 2.22
343.15 K, x2 = 0.672 | – | 1.9
343.15 K, x2 = 0.7428 | – | 1.45
343.15 K, x2 = 0.8088 | – | 1.17
343.45 K, x2 = 0.74 | 4.56 | –
353.15 K, x2 = 0.74 | 5.09 | –

C[S+](C)C.O=S(=O)([N-]S(=O)(=O)C(F)(F)F)C(F)(F)F + CC#N
Conditions | electrical conductivity [S/m]
283.15 K, x2 = 0.87 | 4.66
293.45 K, x2 = 0.87 | 5.28
298.15 K, x1 = 0.0001 | 0.043
298.15 K, x1 = 0.0002 | 0.103
298.15 K, x1 = 0.0003 | 0.148
298.15 K, x1 = 0.0033 | 0.839
298.15 K, x1 = 0.0129 | 2.17
298.15 K, x2 = 0.4883 | 2
298.15 K, x2 = 0.56 | 2.74
298.15 K, x2 = 0.64 | 3.56
298.15 K, x2 = 0.72 | 4.44
298.15 K, x2 = 0.8 | 5.35
298.15 K, x2 = 0.86 | 5.74
298.15 K, x2 = 0.9497 | 4.59
303.25 K, x2 = 0.87 | 5.88
313.15 K, x2 = 0.87 | 6.45
333.15 K, x2 = 0.87 | 7.48
343.15 K, x2 = 0.87 | 8.05
353.15 K, x2 = 0.87 | 8.67

C[S+](C)C.O=S(=O)([N-]S(=O)(=O)C(F)(F)F)C(F)(F)F + O=C1CCCO1
Conditions | electrical conductivity [S/m]
264.75 K, x2 = 0.8 | 0.887
273.15 K, x2 = 0.8 | 1.11
283.85 K, x2 = 0.8 | 1.43
293.15 K, x2 = 0.8 | 1.75
298.15 K, x1 = 0.0001 | 0.011
298.15 K, x1 = 0.0002 | 0.015
298.15 K, x1 = 0.0003 | 0.025
298.15 K, x1 = 0.0005 | 0.038
298.15 K, x1 = 0.0008 | 0.052
298.15 K, x1 = 0.0047 | 0.226
298.15 K, x1 = 0.0187 | 0.583
298.15 K, x2 = 0.5398 | 1.35
298.15 K, x2 = 0.5798 | 1.49
298.15 K, x2 = 0.66 | 1.74
298.15 K, x2 = 0.72 | 1.9
298.15 K, x2 = 0.8 | 2.01
298.15 K, x2 = 0.8695 | 1.89
303.15 K, x2 = 0.8 | 2.11
313.15 K, x2 = 0.8 | 2.5
323.15 K, x2 = 0.8 | 2.9
333.15 K, x2 = 0.8 | 3.32
343.15 K, x2 = 0.8 | 3.74
353.15 K, x2 = 0.8 | 4.17

O=C1CCCO1 + C[NH+](C)C.O=S(=O)([N-]S(=O)(=O)C(F)(F)F)C(F)(F)F
x1 = 1
Conditions | viscosity [mPa·s]
298.15 K | 1.74
303.15 K | 1.61
313.15 K | 1.39
323.15 K | 1.22
343.15 K | 0.96

C[S+](C)C.O=S(=O)([N-]S(=O)(=O)C(F)(F)F)C(F)(F)F + CC1COC(=O)O1
Conditions | electrical conductivity [S/m]
265.55 K, x2 = 0.76 | 0.468
276.95 K, x2 = 0.76 | 0.708
294.65 K, x2 = 0.76 | 1.18
298.15 K, x1 = 0.0001 | 0.009
298.15 K, x1 = 0.0003 | 0.023
298.15 K, x1 = 0.0053 | 0.177
298.15 K, x2 = 0.5156 | 1.07
298.15 K, x2 = 0.565 | 1.21
298.15 K, x2 = 0.6897 | 1.37
298.15 K, x2 = 0.7404 | 1.39
298.15 K, x2 = 0.8098 | 1.34
298.15 K, x2 = 0.8571 | 1.25
298.15 K, x2 = 0.9218 | 0.964
298.15 K, x2 = 0.9792 | 0.39
303.15 K, x2 = 0.76 | 1.44
313.15 K, x2 = 0.76 | 1.8
323.15 K, x2 = 0.76 | 2.16
343.15 K, x2 = 0.76 | 2.94
353.15 K, x2 = 0.76 | 3.34
